Experimental data taken from the RepoRT retention time repository (doi:10.1021/acs.analchem.1c00972).

test: RP, Waters ACQUITY UPLC BEH C18, 100 × 1 mm, 1.7 µm, 50 °C, 0.3 mL/min, estimated dead time 0.17 min; A: water + 10 mM ammonium bicarbonate; B: 10% water + 90% methanol + 10 mM ammonium bicarbonate; gradient (min/%B) 0/0 15/100 21/100 22/0 30/0; conditions: stereoisomer not certain

LC retention time	Structure (SMILES)
6.64 min	Nc1ccc(S(=O)(=O)Nc2ccccn2)cc1 [Sulfapyridine]
14.1 min	N#CSCSc1nc2ccccc2s1 [TCMTB]
15.4 min	CSc1nc(NC2CC2)nc(NC(C)(C)C)n1 [Irgarol]
4.61 min	COc1cc([N+](=O)[O-])ccc1O [4-Nitroguaiacol]
16.3 min	O=C(OCc1ccccc1)c1ccccc1 [Benzoic acid benzyl ester]
10.2 min	CNC(=C[N+](=O)[O-])NCCSCc1ccc(CN(C)C)o1 [Ranitidine]
11.2 min	CC(=O)N(C)c1ccccc1 [N-Methylacetanilide]
17.4 min	CN(C)CCC=C1c2ccccc2CCc2ccccc21 [Amitriptyline]
14.6 min	CCCCCSCCOCCOCCOCCO [3,6,9-Trioxa-12-thia-heptadecanol]
9.17 min	CCCCCCS(=O)(=O)O [1-Hexanesulfonic acid]
4.27 min	COc1ccc(S(=O)(=O)O)cc1 [4-Methoxybenzenesulfonic acid]
17.4 min	CC(C)C(=O)OCC(C)(C)C(OC(=O)C(C)C)C(C)C (stereo unspecified) [2,2,4-Trimethyl-1,3-pentanediol diisobutyrate]
11.3 min	CC(C)N(C(=O)C(=O)O)c1ccccc1 [Propachlor oxanilic acid (OA)]
13.9 min	CC(N)C12CC3CC(CC(C3)C1)C2 (stereo unspecified) [Rimantadin]
8.12 min	CCC(CO)NCCNC(CC)CO (stereo unspecified) [Ethambutol]
10.4 min	COC(=O)c1ccc(C(F)(F)F)nc1S(=O)(=O)NC(=O)Nc1nc(OC)cc(OC)n1 [Flupyrsulfuron-methyl]
7.42 min	Cc1c(C(=O)c2c[nH]n(C)c2=O)ccc(S(C)(=O)=O)c1C1=NOCC1 [Topramezone]
5.51 min	CC(=O)N(CC(O)CO)c1c(I)c(C(=O)NCC(O)CO)c(I)c(C(=O)NCC(O)CO)c1I (stereo unspecified) [Iohexol]
13.5 min	c1ccc(OCCOc2ccccc2)cc1 [Ethylene glycol diphenylether]
13.1 min	CNC(=O)Nc1ccc(C(C)C)cc1 [1-(4-Isopropylphenyl)-3-methyl-Harnstoff]

LC retention time	Structure (SMILES)
13.4 min	CCN(CC)C(=O)c1cccc(C)c1 [DEET]
9.52 min	On1ccccc1=S [Pyrithione]
11.4 min	CC12CCC3c4ccc(O)cc4CCC3C1CC(O)C2O (stereo unspecified) [Estriol]
12.2 min	CCNc1ccccc1 [N-Ethylaniline]
9.9 min	CCOc1ccc(NC(C)=O)cc1 [Phenacetin]
5.67 min	C=CC1=C(C(=O)O)N2C(=O)C(NC(=O)C(=NOCC(=O)O)c3csc(N)n3)C2SC1 (stereo unspecified) [Cefixim]
7.74 min	CC(C)NCC(O)c1ccc(NS(C)(=O)=O)cc1 (stereo unspecified) [Sotalol]
3.77 min	CS(=O)(=O)OCC(O)C(O)COS(C)(=O)=O (stereo unspecified) [Treosulfan]
11.5 min	CCCCOCCOCCOCCO [Triethylene Glycol Monobutyl Ether]
11.5 min	CCC(C)Nc1nc(N)nc(Cl)n1 (stereo unspecified) [Desethylsebutylazin]
10.5 min	NC12CC3CC(CC(C3)C1)C2 [Amantadine]
12.8 min	NS(=O)(=O)c1ccccc1 [Benzenesulfonamide]
12.6 min	NC(=O)N1c2ccccc2C=Cc2ccccc21 [Carbamazepin]
8.17 min	CCNc1nc(N)nc(Cl)n1 [Desisopropylatrazine]
11.1 min	c1ccc2scnc2c1 [Benzothiazol]
5.94 min	Cc1nnc(NS(=O)(=O)c2ccc(N)cc2)s1 [Sulfamethizol]
17.6 min	CCCCCC=CCC=CCCCCCCCC(=O)O [Linoleic acid]
14 min	CCCCOC(=O)C=Cc1ccccc1 [Butyl cinnamate]
18.2 min	CC1COCc2cc3c(cc21)C(C)(C)C(C)C3(C)C (stereo unspecified) [Galaxolide]
11.4 min	c1ccc2ncccc2c1 [Chinolin]

Structure (SMILES)	LC retention time
CC(C)(C)c1ccc(CSc2cnn(C(C)(C)C)c(=O)c2Cl)cc1 [Pyridaben]	18.3 min
CNC(=O)ON=C(C)C(C)S(C)(=O)=O (stereo unspecified) [Butoxycarboxim]	9.41 min
COC(=O)Nc1cccc(OC(=O)Nc2cccc(C)c2)c1 [Phenmedipham]	13.6 min
CCCN(CCC)C(=O)SCc1ccccc1 [Prosulfocarb]	16.9 min
C#CC(C)(C)NC(=O)c1cc(Cl)cc(Cl)c1 [Propyzamide]	14.6 min
CCOP(=S)(OCC)Oc1ccc2c(C)c(Cl)c(=O)oc2c1 [Coumaphos]	15.9 min
CC(C)(c1ccc(O)c(-c2ccccc2)c1)c1ccc(O)c(-c2ccccc2)c1 [Bisphenol PH]	17.1 min
CCC(CC)Nc1c([N+](=O)[O-])cc(C)c(C)c1[N+](=O)[O-] [Pendimethalin]	17.5 min
Nc1ccccc1C(=O)O [Anthranilic acid]	2.1 min
CNC(=O)Oc1ccc(N(C)C)c(C)c1 [Aminocarb]	12.1 min
CC(N)C(O)c1ccccc1 (stereo unspecified) [Cathine]	8.36 min
CNC(=O)Oc1ccccc1OC(C)C [Propoxur (baygon)]	11.9 min
CC(C)(C)C(O)C(=Cc1ccc(Cl)cc1Cl)n1cncn1 (stereo unspecified) [Diniconazole]	16.5 min
Nc1ccc(Cl)cc1 [4-Chloroaniline]	10.6 min
CC#Cc1cc(C)nc(Nc2ccccc2)n1 [Mepanipyrim]	15 min
CCC1(c2cccc(O)c2)CCCCN(C)C1 (stereo unspecified) [Meptazinole]	14.4 min

Structure (SMILES)	LC retention time
CCOCCN(C(=O)CCl)C(=C(C)C)c1ccccc1 [Pethoxamid]	15.3 min
CCCCOCCOCCOCc1cc2c(cc1CCC)OCO2 [Piperonyl butoxide]	15.3 min
CN(CCO)CCO [Methyl diethanolamine]	2.65 min
Cn1sc(Cl)cc1=O [Methylchloroisothiazolinone]	6.48 min
FC(F)(F)c1cccc(N2CCNCC2)c1 [1-(3-Trifluoromethylphenyl)-piperazine]	10.6 min
CNC(=O)CSP(=O)(OC)OC [Omethoate]	6.12 min
CNC(=O)Oc1cc(C)c(SC)c(C)c1 [Methiocarb]	14.3 min
COc1cccc(C2(O)CCCCC2CN(C)C)c1 (stereo unspecified) [Tramadol]	14 min
CC1C(c2ccc(Cl)cc2)SC(=O)N1C(=O)NC1CCCCC1 (stereo unspecified) [Hexythiazox]	17.6 min
COc1ccc2c3c1OC1C(=O)CCC4C(C2)N(C)CCC314 (stereo unspecified) [Hydrocodone]	12.1 min
CC=C1N(C)C(C)CC1(c1ccccc1)c1ccccc1 (stereo unspecified) [EDDP]	17.4 min
CNC(=O)ON=CC(C)(C)S(C)(=O)=O [Aldicarb Sulfone]	9.41 min
Oc1ccc(C(c2ccccc2)(c2ccccc2)c2ccc(O)cc2)cc1 [Bisphenol BP]	15.9 min
COC(=O)C(C)N(C(=O)Cc1ccccc1)c1c(C)cccc1C (stereo unspecified) [Benalaxyl]	16 min
CCNc1nc(Cl)nc(NC(C)C)n1 [Atrazine]	13.1 min
